{"source": "patent US10351566B2", "about": "“Therapeutic compounds for pain and synthesis thereof” (priority 2015, dated 2019)", "format_in_all_cases": "in vivo", "key": {"[1]": {"test_system": "Taxol-induced neuropathic pain", "assay": "Taxol-induced neuropathic pain in mice, SC administration", "method": "(§1) Study outline in brief: Animals were dosed daily with Taxol for a period of 8 consecutive days (Day 0 to Day 7). On study day 8, prior to drug dosing, the decrease in withdrawal force (tactile allodynia) was verified by applying the von Frey test. After assigning the animals to their treatment groups, the animals were treated daily for a period of 5 days with either vehicle or Formula 1 at different doses. Gabapentin at a dose of 150 mg/kg was dosed only on days of testing (day 8 and day 14).\nResponse to heat stimuli was assessed using the hotplate apparatus set at 50ΥC. […] At baseline prior to Taxol dosing, the animals' response time to heat was 28.10±1.60 sec (vehicle-treated group). […] However, it is interesting to note that the beneficial activity of Formula 1 on heat hyperalgesia was more noticeable on study day 14, following repeated daily dosing of the compound, than on study day 8 following a single dose (Table 6)."}, "[2]": {"test_system": "CCI-induced neuropathic pain", "assay": "CCI model in mice, IP route", "details": "CCl model", "from_the_text": "IP route of administration was used for initial proof of principle studies with Formula 1. However, the chosen route of administration in most of the studies conducted with Formula 1 was either SC or PO. A brief protocol outline is provided in each section, for the purpose of understanding the results without elaborating on all the detailed procedures.\nTable 7 summarizes the activity of Formula 1 in mice models of neuropathic pain following repeated daily administration using different routes of administration. […] Treatment with Formula 1 show activity without CNS effect."}, "[3]": {"test_system": "Taxol-induced neuropathic pain", "assay": "Taxol-induced neuropathic pain in mice, oral route", "method": "as §1\nThe activity of Formula 1 following oral administration was assessed using the Taxol model (see Study Outline in section 7.1). […] Gabapentin dosed at 150 mg/kg was active for a period of 4 h post-dosing."}, "[4]": {"test_system": "CCI-induced neuropathic pain", "assay": "Chronic constriction injury (CCI) model in mice, SC route", "details": "for Dose of maximum activity / Duration of activity at maximum effect / Level of activity (% of maximum effect-baseline) / Peak of activity (T): CCl model, SC, mice", "method": "Study outline in brief: The sciatic nerve of mice was exposed under anesthesia, and 3 loose ligations were placed around the nerve. Animals were allowed to recover for 3 days. Tactile allodynia (von Frey testing) and thermal (hot at 50±1° C. and cold at 2±1° C.) hyperalgesia were then assessed. Animals that experienced tactile allodynia were assigned to their treatment groups (vehicle, gabapentin and Formula 1 at different doses). Animals were subsequently treated daily for a period of 5 days with either vehicle or Formula 1 at different doses. Gabapentin at a dose of 150 mg/kg was dosed only on days of testing (day 3 and day 7)."}}, "note": "Marks after values point to notes of the source that are not given here.", "data": [{"smiles": "NCC1(CC(=O)O)CCCCC1", "note": "[Gabapentin, gabapentin, reference compound]", "values": [{"measurement": "response time to heat (50° C.), Mean", "setting": "[1]; 150 mg/kg, Day 0 Pre-Taxol", "result": 28.5, "unit": "s"}, {"measurement": "response time to heat (50° C.), Mean", "setting": "[1]; 150 mg/kg, Day 8, 1 h", "result": "18.9* sec"}, {"measurement": "response time to heat (50° C.), Mean", "setting": "[1]; 150 mg/kg, Day 8, 2 h", "result": "22.5* sec"}, {"measurement": "response time to heat (50° C.), Mean", "setting": "[1]; 150 mg/kg, Day 8, 4 h", "result": 16.7, "unit": "s"}, {"measurement": "response time to heat (50° C.), Mean", "setting": "[1]; 150 mg/kg, Day 8, 6 h", "result": 13.8, "unit": "s"}, {"measurement": "response time to heat (50° C.), Mean", "setting": "[1]; 150 mg/kg, Day 8 Pre-dosing", "result": 11.1, "unit": "s"}, {"measurement": "response time to heat (50° C.), Mean", "setting": "[1]; 150 mg/kg, Day 14, 1 h", "result": "25.1* sec"}, {"measurement": "response time to heat (50° C.), Mean", "setting": "[1]; 150 mg/kg, Day 14, 2 h", "result": 25.0, "unit": "s"}, {"measurement": "response time to heat (50° C.), Mean", "setting": "[1]; 150 mg/kg, Day 14, 4 h", "result": "25.1* sec"}, {"measurement": "response time to heat (50° C.), Mean", "setting": "[1]; 150 mg/kg, Day 14, 6 h", "result": "18.7* sec"}, {"measurement": "response time to heat (50° C.), Mean", "setting": "[1]; 150 mg/kg, Day 14 Pre-dosing", "result": 11.2, "unit": "s"}, {"measurement": "response time to heat (50° C.), Mean", "setting": "[1]; 150 mg/kg, Day 17, No dosing", "result": 11.5, "unit": "s"}, {"measurement": "period of increase in withdrawal force (von Frey)", "setting": "[1]; Taxol mice, 150 mg/kg", "result": 4, "unit": "h"}, {"measurement": "Dose of maximum activity", "setting": "[1]; Taxol model, SC, mice", "result": 150, "unit": "mg/kg"}, {"measurement": "Duration of activity at maximum effect", "setting": "[1]; Taxol model, SC, mice", "result": 4, "unit": "H"}, {"measurement": "Level of activity (% of maximum effect-baseline)", "setting": "[1]; Taxol model, SC, mice", "result": 100, "unit": "%"}, {"measurement": "Peak of activity (T)", "setting": "[1]; Taxol model, SC, mice", "result": "2-4 H"}, {"measurement": "Dose of maximum activity", "setting": "[2]", "result": 150, "unit": "mg/kg"}, {"measurement": "Duration of activity at maximum effect", "setting": "[2]", "result": "4-6 H"}, {"measurement": "Peak of activity (T)", "setting": "[2]", "result": "2-3 H"}, {"measurement": "Level of activity (% of maximum effect-baseline)", "setting": "[2]; repeated daily administration", "result": 66, "unit": "%"}, {"measurement": "period of activity post-dosing", "setting": "[3]; Taxol mice, 150 mg/kg", "result": 4, "unit": "h"}, {"measurement": "Dose of maximum activity", "setting": "[3]; Taxol model, PO, mice", "result": 150, "unit": "mg/kg"}, {"measurement": "Duration of activity at maximum effect", "setting": "[3]; Taxol model, PO, mice", "result": 4, "unit": "H"}, {"measurement": "Level of activity (% of maximum effect-baseline)", "setting": "[3]; Taxol model, PO, mice", "result": 100, "unit": "%"}, {"measurement": "Peak of activity (T)", "setting": "[3]; Taxol model, PO, mice", "result": "2-4 H"}, {"measurement": "response time to cold plate", "setting": "[4]; CCI mice, 150 mg/kg", "result": "increased the response time of the animals to values that were higher than the baseline value"}, {"measurement": "withdrawal force (von Frey)", "setting": "[4]; CCI mice, 150 mg/kg", "result": "significant, but not complete, reversal"}, {"measurement": "Dose of maximum activity", "setting": "[4]; first SC line", "result": 150, "unit": "mg/kg"}, {"measurement": "Duration of activity at maximum effect", "setting": "[4]; first SC line", "result": "4-6 H"}, {"measurement": "Level of activity (% of maximum effect-baseline)", "setting": "[4]; first SC line", "result": 64, "unit": "%"}, {"measurement": "Peak of activity (T)", "setting": "[4]; first SC line", "result": "2-3 H"}, {"measurement": "Level of activity (% of maximum effect-baseline)", "setting": "[4]; second SC line (readout not given)", "result": ">100", "unit": "%"}, {"measurement": "Dose of maximum activity", "setting": "[4]; second SC line", "result": 150, "unit": "mg/kg"}, {"measurement": "Duration of activity at maximum effect", "setting": "[4]; second SC line", "result": "4-6 H"}, {"measurement": "Peak of activity (T)", "setting": "[4]; second SC line", "result": "2-3 H"}]}]}
